Data as given in ChEMBL document CHEMBL2074029, “Substrate specificities of rat oatp1 and ntcp: implications for hepatic organic anion uptake” (Am J Physiol Gastrointest Liver Physiol, 2003).
One block for each compound: values may come before it.

How the values were obtained:
Assay type in all cases: functional, cell-based
[1] = target: T1, Solute carrier organic anion transporter family member 1A1 (Rattus norvegicus, UniProt P46720); assay: TP_TRANSPORTER: uptake of Trihydroxycoprostanoic acid at 20 uM in Oatp1-expressing HeLa cells; conditions: human
T1 sequence (P46720 whole entry): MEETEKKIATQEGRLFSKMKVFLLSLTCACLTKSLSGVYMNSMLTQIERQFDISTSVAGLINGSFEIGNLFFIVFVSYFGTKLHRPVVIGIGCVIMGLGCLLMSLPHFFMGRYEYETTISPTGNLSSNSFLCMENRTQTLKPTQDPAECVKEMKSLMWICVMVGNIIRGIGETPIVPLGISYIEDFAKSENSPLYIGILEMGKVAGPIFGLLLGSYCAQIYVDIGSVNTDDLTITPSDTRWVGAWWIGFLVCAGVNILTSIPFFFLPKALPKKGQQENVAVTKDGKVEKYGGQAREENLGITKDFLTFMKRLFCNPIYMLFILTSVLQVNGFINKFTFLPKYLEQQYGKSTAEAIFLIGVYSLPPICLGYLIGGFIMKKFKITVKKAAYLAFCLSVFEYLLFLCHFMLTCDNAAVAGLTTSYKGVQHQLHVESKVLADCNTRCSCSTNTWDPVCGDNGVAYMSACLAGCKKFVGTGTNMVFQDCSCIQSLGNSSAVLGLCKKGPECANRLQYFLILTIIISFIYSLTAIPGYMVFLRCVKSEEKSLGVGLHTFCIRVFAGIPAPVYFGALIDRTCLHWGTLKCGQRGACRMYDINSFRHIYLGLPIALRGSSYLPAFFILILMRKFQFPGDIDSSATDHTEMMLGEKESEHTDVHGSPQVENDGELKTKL

[2] = target: T1, Solute carrier organic anion transporter family member 1A1; assay: TP_TRANSPORTER: uptake of Taurochenodeoxycholate at 20 u M in Oatp1-expressing HeLa cells; conditions: human, 20 µM
[3] = target: T1, Solute carrier organic anion transporter family member 1A1; assay: TP_TRANSPORTER: uptake of 23-Nor-cholate at 20 u M in Oatp1-expressing HeLa cells; conditions: human, 20 µM
[4] = target: T1, Solute carrier organic anion transporter family member 1A1; assay: TP_TRANSPORTER: uptake of Glycoursodeoxycholate at 20 u M in Oatp1-expressing HeLa cells; conditions: human, 20 µM
[5] = target: T1, Solute carrier organic anion transporter family member 1A1; assay: TP_TRANSPORTER: uptake of Glycotrihydroxycoprostanoic acid at 20 u M in Oatp1-expressing HeLa cells; conditions: human, 20 µM
[6] = target: T1, Solute carrier organic anion transporter family member 1A1; assay: TP_TRANSPORTER: uptake of Taurotrihydroxycoprostanoic acid at 20 u M in Oatp1-expressing HeLa cells; conditions: human, 20 µM
[7] = target: T1, Solute carrier organic anion transporter family member 1A1; assay: TP_TRANSPORTER: uptake of Ursodeoxycholate at 20 uM in Oatp1-expressing HeLa cells; conditions: human
[8] = target: T2, Hepatic sodium/bile acid cotransporter (Rattus norvegicus, UniProt P26435); assay: TP_TRANSPORTER: uptake of Taurolagodeoxycholate at a concentration of 1 u M in NTCP-expressing HeLa cells; conditions: human, 1 µM
T2 sequence (P26435 whole entry): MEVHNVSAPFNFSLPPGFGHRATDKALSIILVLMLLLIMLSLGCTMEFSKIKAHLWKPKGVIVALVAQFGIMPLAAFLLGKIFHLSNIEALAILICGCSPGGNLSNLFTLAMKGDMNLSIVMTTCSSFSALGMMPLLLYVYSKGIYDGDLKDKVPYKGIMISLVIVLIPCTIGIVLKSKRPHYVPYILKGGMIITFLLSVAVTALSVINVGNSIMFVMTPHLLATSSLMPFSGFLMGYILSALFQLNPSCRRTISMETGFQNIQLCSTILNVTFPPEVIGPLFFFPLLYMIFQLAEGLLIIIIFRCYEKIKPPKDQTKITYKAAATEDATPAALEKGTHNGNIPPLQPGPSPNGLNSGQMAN

[9] = target: T1, Solute carrier organic anion transporter family member 1A1; assay: TP_TRANSPORTER: uptake of Taurolagodeoxycholate at 1 u M in Oatp1-expressing HeLa cells; conditions: human, 1 µM
[10] = target: T1, Solute carrier organic anion transporter family member 1A1; assay: TP_TRANSPORTER: uptake of Tauromurocholate at 1 u M in Oatp1-expressing HeLa cells; conditions: human, 1 µM
[11] = target: T2, Hepatic sodium/bile acid cotransporter; assay: TP_TRANSPORTER: uptake of Tauromurocholate at a concentration of 1 u M in NTCP-expressing HeLa cells; conditions: human, 1 µM
[12] = target: T2, Hepatic sodium/bile acid cotransporter; assay: TP_TRANSPORTER: uptake of Hyodeoxycholate at a concentration of 1 u M in NTCP-expressing HeLa cells; conditions: human, 1 µM
[13] = target: T2, Hepatic sodium/bile acid cotransporter; assay: TP_TRANSPORTER: uptake of Lagodeoxycholate at a concentration of 1 u M in NTCP-expressing HeLa cells; conditions: human, 1 µM
[14] = target: T1, Solute carrier organic anion transporter family member 1A1; assay: TP_TRANSPORTER: uptake of Lagodeoxycholate at 1 uM in Oatp1-expressing HeLa cells; conditions: human
[15] = target: T1, Solute carrier organic anion transporter family member 1A1; assay: TP_TRANSPORTER: uptake of Tauroursodeoxycholate at 20 u M in Oatp1-expressing HeLa cells; conditions: human, 20 µM
[16] = target: T1, Solute carrier organic anion transporter family member 1A1; assay: TP_TRANSPORTER: uptake of Deoxycholate at 1 uM in Oatp1-expressing HeLa cells; conditions: human
[17] = target: T2, Hepatic sodium/bile acid cotransporter; assay: TP_TRANSPORTER: uptake of Deoxycholate at a concentration of 1 u M in NTCP-expressing HeLa cells; conditions: human, 1 µM
[18] = target: T1, Solute carrier organic anion transporter family member 1A1; assay: TP_TRANSPORTER: uptake of Bromosulfophthalein at 1 u M in Oatp1-expressing HeLa cells; conditions: human, 1 µM
[19] = target: T2, Hepatic sodium/bile acid cotransporter; assay: TP_TRANSPORTER: uptake of Glycocholate at a concentration of 4 u M in NTCP-expressing HeLa cells; conditions: human, 4 µM
[20] = target: T1, Solute carrier organic anion transporter family member 1A1; assay: TP_TRANSPORTER: uptake of Glycocholate at 20 u M in Oatp1-expressing HeLa cells; conditions: human, 20 µM
[21] = target: T1, Solute carrier organic anion transporter family member 1A1; assay: TP_TRANSPORTER: uptake of Glycocholate at 4 u M in Oatp1-expressing HeLa cells; conditions: human, 4 µM
[22] = target: T1, Solute carrier organic anion transporter family member 1A1; assay: TP_TRANSPORTER: uptake of Glycochenodeoxycholate at 20 uM in Oatp1-expressing HeLa cells; conditions: human
[23] = target: T1, Solute carrier organic anion transporter family member 1A1; assay: TP_TRANSPORTER: uptake of Tauro-23-norcholate at 20 u M in Oatp1-expressing HeLa cells; conditions: human, 20 µM
[24] = target: T1, Solute carrier organic anion transporter family member 1A1; assay: TP_TRANSPORTER: uptake of Glyco-23-norcholate at 20 uM in Oatp1-expressing HeLa cells; conditions: human
[25] = target: T1, Solute carrier organic anion transporter family member 1A1; assay: TP_TRANSPORTER: uptake of Chenodeoxycholate at 20 uM in Oatp1-expressing HeLa cells; conditions: human
[26] = target: T2, Hepatic sodium/bile acid cotransporter; assay: TP_TRANSPORTER: uptake of Muricholate at a concentration of 1 u M in NTCP-expressing HeLa cells; conditions: human, 1 µM
[27] = target: T1, Solute carrier organic anion transporter family member 1A1; assay: TP_TRANSPORTER: uptake of Muricholate at 1 u M in Oatp1-expressing HeLa cells; conditions: human, 1 µM

Structure (SMILES): C[C@H](CC(=O)O)[C@H]1CC[C@H]2[C@@H]3[C@H](O)C[C@@H]4C[C@H](O)CC[C@]4(C)[C@H]3C[C@H](O)[C@]12C
Activity [3]: substrate [+]

Structure (SMILES): C[C@H](CCC(=O)NCC(=O)O)[C@H]1CC[C@H]2[C@@H]3[C@@H](O)C[C@@H]4C[C@H](O)CC[C@]4(C)[C@H]3CC[C@]12C [GLYCOURSODEOXYCHOLIC ACID]
Activity [4]: substrate [+]

Structure (SMILES): C[C@H](CCC(=O)O)[C@H]1CC[C@H]2[C@@H]3[C@@H](O)C[C@@H]4C[C@H](O)CC[C@]4(C)[C@H]3CC[C@]12C [URSODIOL]
Activity [7]: is not a substrate [-]

Structure (SMILES): C[C@H](CCC(=O)NCCS(=O)(=O)O)[C@H]1CC[C@H]2[C@@H]3C[C@@H](O)[C@@H]4C[C@H](O)CC[C@]4(C)[C@H]3CC[C@]12C [TAUROMUROCHOLATE]
Activity [10]: substrate [+]
Activity [11]: substrate [+]

Structure (SMILES): O=C1OC(c2ccc(O)c(S(=O)(=O)[O-])c2)(c2ccc(O)c(S(=O)(=O)[O-])c2)c2c(Br)c(Br)c(Br)c(Br)c21.[Na+].[Na+] [SULFOBROMOPHTHALEIN SODIUM]
Activity [18]: substrate [+]

Structure (SMILES): C[C@H](CCC(=O)NCC(=O)O)[C@H]1CC[C@H]2[C@@H]3[C@H](O)C[C@@H]4C[C@H](O)CC[C@]4(C)[C@H]3CC[C@]12C [GLYCOCHENODEOXYCHOLATE]
Activity [22]: is not a substrate [-]

Structure (SMILES): C[C@H](CC(=O)NCCS(=O)(=O)O)[C@H]1CC[C@H]2[C@@H]3[C@H](O)C[C@@H]4C[C@H](O)CC[C@]4(C)[C@H]3C[C@H](O)[C@]12C
Activity [23]: substrate [+]

Structure (SMILES): C[C@H](CCC(=O)O)[C@H]1CC[C@H]2[C@@H]3[C@H](O)C[C@@H]4C[C@H](O)CC[C@]4(C)[C@H]3CC[C@]12C [CHENODIOL]
Activity [25]: is not a substrate [-]

Structure (SMILES): C[C@H](CCC(=O)O)C1CC[C@H]2[C@@H]3C(O)C(O)C4C[C@H](O)CC[C@]4(C)[C@H]3CC[C@]12C (some centres not stated) [MURICHOLATE]
Activity [26]: substrate [+]
Activity [27]: substrate [+]

Next, values leading:

Activity [1]: is not a substrate [-]
Structure (SMILES): CC(C)CCC[C@@H](C)C1CC[C@H]2[C@@H]3[C@H](O)C[C@]4(C(=O)O)C[C@H](O)CC[C@]4(C)[C@H]3C[C@H](O)[C@]12C (some centres not stated) [TRIHYDROXYCOPROSTANOIC ACID]

Activity [2]: substrate [+]
Structure (SMILES): C[C@H](CCC(=O)NCCS(=O)(=O)O)[C@H]1CC[C@H]2[C@@H]3[C@H](O)C[C@@H]4C[C@H](O)CC[C@]4(C)[C@H]3CC[C@]12C [TAUROCHENODEOXYCHOLATE]

Activity [5]: substrate [+]
Structure (SMILES): CC(CC(=O)NCC(=O)O)[C@H]1CC[C@@H]2C1[C@@H](O)C[C@@H]1C3CC[C@@H](O)CC3C[C@@H](O)[C@H]12 (some centres not stated) [GLYCOTRIHYDROXYCOPROSTANOIC ACID]

Activity [6]: substrate [+]
Structure (SMILES): CC(CCC[C@@H](C)C1CC[C@H]2[C@@H]3[C@H](O)C[C@]4(C(=O)O)C[C@H](O)CC[C@]4(C)[C@H]3C[C@H](O)[C@]12C)C(=O)NCCS(=O)(=O)O (some centres not stated) [TAUROTRIHYDROXYCOPROSTANOIC ACID]

Activity [8]: substrate [+]
Activity [9]: substrate [+]
Structure (SMILES): C[C@H](CCC(=O)NCCS(=O)(=O)O)[C@H]1CC[C@H]2[C@@H]3CC[C@H]4C[C@H](O)CC[C@]4(C)[C@H]3C[C@@H](O)[C@]12C [TAUROLAGODEOXYCHOLATE]

Activity [12]: is not a substrate [-]
Structure (SMILES): C[C@H](CCC(=O)O)[C@H]1CC[C@H]2[C@@H]3C[C@H](O)[C@@H]4C[C@H](O)CC[C@]4(C)[C@H]3CC[C@]12C [HYODEOXYCHOLIC_ACID]

Activity [13]: is not a substrate [-]
Activity [14]: is not a substrate [-]
Structure (SMILES): C[C@H](CCC(=O)O)[C@H]1CC[C@H]2[C@@H]3CC[C@@H]4C[C@H](O)CC[C@]4(C)[C@H]3C[C@@H](O)[C@]12C [LAGODEOXYCHOLATE]

Activity [15]: substrate [+]
Structure (SMILES): C[C@H](CCC(=O)NCCS(=O)(=O)O)[C@H]1CC[C@H]2[C@@H]3[C@@H](O)C[C@@H]4C[C@H](O)CC[C@]4(C)[C@H]3CC[C@]12C [TAURURSODIOL]

Activity [16]: is not a substrate [-]
Activity [17]: is not a substrate [-]
Structure (SMILES): C[C@H](CCC(=O)O)[C@H]1CC[C@H]2[C@@H]3CC[C@@H]4C[C@H](O)CC[C@]4(C)[C@H]3C[C@H](O)[C@]12C [DEOXYCHOLIC ACID]

Activity [19]: substrate [+]
Activity [20]: substrate [+]
Activity [21]: substrate [+]
Structure (SMILES): C[C@H](CCC(=O)NCC(=O)O)[C@H]1CC[C@H]2[C@@H]3[C@H](O)C[C@@H]4C[C@H](O)CC[C@]4(C)[C@H]3C[C@H](O)[C@]12C [GLYCOCHOLIC ACID]

Activity [24]: is not a substrate [-]
Structure (SMILES): C[C@H](CC(=O)NCC(=O)O)[C@H]1CC[C@H]2[C@@H]3[C@H](O)C[C@@H]4C[C@H](O)CC[C@]4(C)[C@H]3C[C@H](O)[C@]12C
